{"source": "paper PMC5218480", "about": "(PLoS ONE, 2017)", "test_system": "MV-4-11 cells", "assay": "Gene expression microarray analysis (Affymetrix PrimeView) and GSEA", "type": "cell-based, human", "parameters": "RFU PODN (11730768_x_at) / Fold change /veh PODN (11730768_x_at) / RFU LINC00158 (11744669_a_at) / Fold change /veh LINC00158 (11744669_a_at) / RFU DUSP10 (11751237_a_at) / Fold change /veh DUSP10 (11751237_a_at) / RFU ID3 (11757404_x_at) / Fold change /veh ID3 (11757404_x_at) / RFU PLEKHG5 (11737974_s_at) / Fold change /veh PLEKHG5 (11737974_s_at) / RFU LRRC4B (11730491_at) / Fold change /veh LRRC4B (11730491_at) / RFU GIMAP4 (11747438_a_at) / Fold change /veh GIMAP4 (11747438_a_at) / RFU KRT8 (11758183_x_at) / Fold change /veh KRT8 (11758183_x_at) / RFU CNN1 (11734310_a_at) / Fold change /veh CNN1 (11734310_a_at) / RFU VPS37D (11726825_at) / Fold change /veh VPS37D (11726825_at) / RFU C10orf10 (11716522_x_at) / Fold change /veh C10orf10 (11716522_x_at) / RFU KIR2DL2 /// KIR2DL4 /// KIR2DL5A /// KIR2DL5B /// KIR2DS1 /// KIR2DS2 /// KIR2DS3 /// KIR2DS4 /// KIR3DL3 /// KIR3DL3 /// KIR3DS1 (11738374_at) / Fold change /veh KIR2DL2 /// KIR2DL4 /// KIR2DL5A /// KIR2DL5B /// KIR2DS1 /// KIR2DS2 /// KIR2DS3 /// KIR2DS4 /// KIR3DL3 /// KIR3DL3 /// KIR3DS1 (11738374_at) / RFU C1QL1 (11718748_at) / Fold change /veh C1QL1 (11718748_at) / RFU TMPRSS4 (11747572_a_at) / Fold change /veh TMPRSS4 (11747572_a_at) / RFU HAMP (11756126_x_at) / Fold change /veh HAMP (11756126_x_at) / RFU RNFT2 (11725882_a_at) / Fold change /veh RNFT2 (11725882_a_at) / RFU NR4A2 (11747474_a_at) / Fold change /veh NR4A2 (11747474_a_at) / RFU ABCC12 (11746883_a_at) / Fold change /veh ABCC12 (11746883_a_at) / RFU TMEM136 (11760407_x_at) / Fold change /veh TMEM136 (11760407_x_at) / RFU CLDN22 /// WWC2 (11732394_at) / Fold change /veh CLDN22 /// WWC2 (11732394_at) / RFU HLA-DPB1 (11760878_x_at) / Fold change /veh HLA-DPB1 (11760878_x_at) / RFU SPINT1 (11716480_a_at) / Fold change /veh SPINT1 (11716480_a_at) / RFU GAP43 (11754022_s_at) / Fold change /veh GAP43 (11754022_s_at) / RFU A4GNT (11735810_at) / Fold change /veh A4GNT (11735810_at) / RFU PRB3 (11715151_x_at) / Fold change /veh PRB3 (11715151_x_at) / RFU TUBB4B (11761932_at) / Fold change /veh TUBB4B (11761932_at) / RFU CAPN14 (11732068_a_at) / Fold change /veh CAPN14 (11732068_a_at) / RFU TMCC2 (11721928_a_at) / Fold change /veh TMCC2 (11721928_a_at) / RFU IRGQ (11745062_a_at) / Fold change /veh IRGQ (11745062_a_at) / RFU FAM174B (11720279_a_at) / Fold change /veh FAM174B (11720279_a_at) / RFU TMPRSS4 (11748680_a_at) / Fold change /veh TMPRSS4 (11748680_a_at) / RFU FAM212B (11763350_a_at) / Fold change /veh FAM212B (11763350_a_at) / RFU PLEKHG5 (11743358_a_at) / Fold change /veh PLEKHG5 (11743358_a_at) / RFU ZSCAN30 (11745921_a_at) / Fold change /veh ZSCAN30 (11745921_a_at) / RFU CMKLR1 (11741424_a_at) / Fold change /veh CMKLR1 (11741424_a_at) / RFU LOC101060620 /// MAPK8IP1 (11723275_at) / Fold change /veh LOC101060620 /// MAPK8IP1 (11723275_at) / RFU SPTSSB (11747773_x_at) / Fold change /veh SPTSSB (11747773_x_at) / RFU PRSS12 (11739890_at) / Fold change /veh PRSS12 (11739890_at) / RFU BIN1 (11741810_x_at) / Fold change /veh BIN1 (11741810_x_at) / RFU WNT11 (11732464_a_at) / Fold change /veh WNT11 (11732464_a_at) / RFU C10orf10 (11716521_a_at) / Fold change /veh C10orf10 (11716521_a_at) / RFU C5orf56 (11738089_at) / Fold change /veh C5orf56 (11738089_at) / RFU CYB561 (11721691_x_at) / Fold change /veh CYB561 (11721691_x_at) / RFU ANKRD19P (11752326_a_at) / Fold change /veh ANKRD19P (11752326_a_at) / RFU OR2T12 /// OR2T33 /// OR2T8 (11738714_s_at) / Fold change /veh OR2T12 /// OR2T33 /// OR2T8 (11738714_s_at) / RFU VCAN (11748164_a_at) / Fold change /veh VCAN (11748164_a_at) / RFU JSRP1 (11732532_at) / Fold change /veh JSRP1 (11732532_at) / RFU KRTAP10-11 (11738290_x_at) / Fold change /veh KRTAP10-11 (11738290_x_at) / RFU MYO3A (11730013_a_at) / Fold change /veh MYO3A (11730013_a_at) / RFU EBF3 (11725865_a_at) / Fold change /veh EBF3 (11725865_a_at) / RFU CAMK2N1 (11719241_x_at) / Fold change /veh CAMK2N1 (11719241_x_at) / RFU C5orf56 (11738088_a_at) / Fold change /veh C5orf56 (11738088_a_at) / RFU OLFML3 (11715873_a_at) / Fold change /veh OLFML3 (11715873_a_at) / RFU LOC100653217 /// NTM (11731650_a_at) / Fold change /veh LOC100653217 /// NTM (11731650_a_at) / RFU MAPK11 (11762145_a_at) / Fold change /veh MAPK11 (11762145_a_at) / RFU FIZ1 (11724087_x_at) / Fold change /veh FIZ1 (11724087_x_at) / RFU OASL (11726364_x_at) / Fold change /veh OASL (11726364_x_at) / RFU SOX15 (11748057_x_at) / Fold change /veh SOX15 (11748057_x_at) / RFU CD79A (11719716_a_at) / Fold change /veh CD79A (11719716_a_at) / RFU HIST1H1D (11736915_at) / Fold change /veh HIST1H1D (11736915_at) / RFU CASKIN2 (11723855_a_at) / Fold change /veh CASKIN2 (11723855_a_at) / RFU LOC730098 (11760151_x_at) / Fold change /veh LOC730098 (11760151_x_at) / RFU OR4N2 (11742367_at) / Fold change /veh OR4N2 (11742367_at) / RFU PRRT2 (11749266_a_at) / Fold change /veh PRRT2 (11749266_a_at) / RFU SNX32 (11753110_a_at) / Fold change /veh SNX32 (11753110_a_at) / RFU CDHR5 (11726645_a_at) / Fold change /veh CDHR5 (11726645_a_at) / RFU RCAN1 (11760418_a_at) / Fold change /veh RCAN1 (11760418_a_at) / RFU FAM167A (11723789_a_at) / Fold change /veh FAM167A (11723789_a_at) / RFU FAM26E (11764081_at) / Fold change /veh FAM26E (11764081_at) / RFU ISYNA1 (11749810_s_at) / Fold change /veh ISYNA1 (11749810_s_at) / RFU ACY1 (11761880_at) / Fold change /veh ACY1 (11761880_at) / RFU 11764098_at / Fold change /veh 11764098_at / RFU SAMD14 (11745864_x_at) / Fold change /veh SAMD14 (11745864_x_at) / RFU NPB (11741838_a_at) / Fold change /veh NPB (11741838_a_at) / RFU TMPRSS6 (11731388_a_at) / Fold change /veh TMPRSS6 (11731388_a_at) / RFU KRTAP10-2 (11738614_at) / Fold change /veh KRTAP10-2 (11738614_at) / RFU ARHGAP8 /// PRR5-ARHGAP8 (11727945_x_at) / Fold change /veh ARHGAP8 /// PRR5-ARHGAP8 (11727945_x_at) / RFU KRTAP5-7 /// NADSYN1 (11734609_at) / Fold change /veh KRTAP5-7 /// NADSYN1 (11734609_at) / RFU RASL12 (11751679_a_at) / Fold change /veh RASL12 (11751679_a_at) / RFU CDKN2B (11736163_a_at) / Fold change /veh CDKN2B (11736163_a_at) / RFU PRF1 (11729649_at) / Fold change /veh PRF1 (11729649_at) / RFU, ZNF638 /// ZNF638-IT1 / Fold change vs veh, ZNF638 /// ZNF638-IT1 / RFU, PANK3 / Fold change vs veh, PANK3 / RFU, SH3YL1 / Fold change vs veh, SH3YL1 / RFU, ZEB2 / Fold change vs veh, ZEB2 / RFU, NRIP1 / Fold change vs veh, NRIP1 / RFU, PTTG1IP / Fold change vs veh, PTTG1IP / RFU, CAPN2 / Fold change vs veh, CAPN2 / RFU, MED14 / Fold change vs veh, MED14 / RFU, SNORA58 / Fold change vs veh, SNORA58 / RFU, C1orf63 / Fold change vs veh, C1orf63 / RFU, LRRFIP1 / Fold change vs veh, LRRFIP1 / RFU, NDUFAF7 / Fold change vs veh, NDUFAF7 / RFU, SLC12A2 / Fold change vs veh, SLC12A2 / RFU, IBTK / Fold change vs veh, IBTK / RFU, ESF1 / Fold change vs veh, ESF1 / Fold change vs veh, TMEM50B / RFU, TAOK1 / Fold change vs veh, TAOK1 / RFU, ACBD3 / Fold change vs veh, ACBD3 / RFU, TMA16 / Fold change vs veh, TMA16 / RFU, RWDD3 / Fold change vs veh, RWDD3 / RFU, BCAT1 / Fold change vs veh, BCAT1 / RFU, EDEM3 / Fold change vs veh, EDEM3 / RFU, TMEM33 / Fold change vs veh, TMEM33 / RFU, WDR75 / Fold change vs veh, WDR75 / RFU, AHCTF1 / Fold change vs veh, AHCTF1 / RFU, TFRC / Fold change vs veh, TFRC / RFU, ZDHHC17 / Fold change vs veh, ZDHHC17 / RFU, NOM1 / Fold change vs veh, NOM1 / RFU, ARL8B / Fold change vs veh, ARL8B / RFU, ZBTB11 / Fold change vs veh, ZBTB11 / RFU, TAMM41 / Fold change vs veh, TAMM41 / RFU, KIAA1704 /// LOC100996395 / Fold change vs veh, KIAA1704 /// LOC100996395 / RFU, ING1 / Fold change vs veh, ING1 / RFU, TRMT61B / Fold change vs veh, TRMT61B / RFU, FUBP3 / Fold change vs veh, FUBP3 / RFU, TP53 / Fold change vs veh, TP53 / RFU, TNKS2 / Fold change vs veh, TNKS2 / RFU, ZFP14 / Fold change vs veh, ZFP14 / RFU, ACTR2 / Fold change vs veh, ACTR2 / RFU, PPP3R1 / Fold change vs veh, PPP3R1 / RFU, PIK3R1 / Fold change vs veh, PIK3R1 / RFU, HNRNPA1 / Fold change vs veh, HNRNPA1 / RFU, RNF170 / Fold change vs veh, RNF170 / RFU, ZNF28 / Fold change vs veh, ZNF28 / RFU, RNGTT / Fold change vs veh, RNGTT / RFU, OGT / Fold change vs veh, OGT / RFU, BRD1 / Fold change vs veh, BRD1 / RFU, MARS / Fold change vs veh, MARS / RFU, ZNF655 / Fold change vs veh, ZNF655 / RFU, FAHD1 / Fold change vs veh, FAHD1 / RFU, BDP1 / Fold change vs veh, BDP1 / RFU, LRRCC1 / Fold change vs veh, LRRCC1 / RFU, ARID1A / Fold change vs veh, ARID1A / RFU, ZNF146 / Fold change vs veh, ZNF146 / RFU, ZNF330 / Fold change vs veh, ZNF330 / RFU, GPN3 / Fold change vs veh, GPN3 / RFU, C9orf123 / Fold change vs veh, C9orf123 / RFU, N4BP2L2 / Fold change vs veh, N4BP2L2 / RFU, ARFIP1 / Fold change vs veh, ARFIP1 / RFU, FAM179B / Fold change vs veh, FAM179B / RFU, BCL10 / Fold change vs veh, BCL10 / RFU, UHRF1BP1L / Fold change vs veh, UHRF1BP1L / RFU, BET1 / Fold change vs veh, BET1 / RFU, CNOT2 / Fold change vs veh, CNOT2 / RFU, ZNF268 / Fold change vs veh, ZNF268 / Fold change vs veh, ZNF507 / RFU, DGCR2 / Fold change vs veh, DGCR2 / RFU, WDSUB1 / Fold change vs veh, WDSUB1 / Fold change vs veh, HSP90B1 /// MIR3652 / RFU, ADSS / Fold change vs veh, ADSS / RFU, GK / Fold change vs veh, GK / RFU, ZNF148 / Fold change vs veh, ZNF148 / RFU, TAF9 / Fold change vs veh, TAF9 / RFU, SLC1A5 / Fold change vs veh, SLC1A5 / RFU, SLMO2 / Fold change vs veh, SLMO2 / RFU, ABCC4 / Fold change vs veh, ABCC4 / RFU, LOC101060439 /// RAP1B / Fold change vs veh, LOC101060439 /// RAP1B / RFU, RFX7 / Fold change vs veh, RFX7 / RFU, GTPBP10 / Fold change vs veh, GTPBP10 / RFU, CNEP1R1 / Fold change vs veh, CNEP1R1 / RFU, BIVM-ERCC5 /// ERCC5 / Fold change vs veh, BIVM-ERCC5 /// ERCC5 / RFU, ILF3 / Fold change vs veh, ILF3 / RFU 11762660_at / Fold change /veh 11762660_at / RFU VCAN (11757783_s_at) / Fold change /veh VCAN (11757783_s_at) / RFU DDX43 (11728927_at) / Fold change /veh DDX43 (11728927_at) / RFU KRT8 (11758188_x_at) / Fold change /veh KRT8 (11758188_x_at) / RFU NKD1 (11759106_at) / Fold change /veh NKD1 (11759106_at) / RFU SRD5A1 (11742802_a_at) / Fold change /veh SRD5A1 (11742802_a_at) / RFU TPSAB1 /// TPSB2 (11721975_s_at) / Fold change /veh TPSAB1 /// TPSB2 (11721975_s_at) / RFU GSTM3 (11746129_a_at) / Fold change /veh GSTM3 (11746129_a_at) / RFU IL23R (11737362_x_at) / Fold change /veh IL23R (11737362_x_at) / RFU TMEM51 (11727254_a_at) / Fold change /veh TMEM51 (11727254_a_at) / RFU PIWIL2 (11732686_x_at) / Fold change /veh PIWIL2 (11732686_x_at) / RFU ORM1 (11744905_x_at) / Fold change /veh ORM1 (11744905_x_at) / RFU CCDC152 (11743942_at) / Fold change /veh CCDC152 (11743942_at) / RFU ECM1 (11717891_a_at) / Fold change /veh ECM1 (11717891_a_at) / RFU IL23R (11748794_a_at) / Fold change /veh IL23R (11748794_a_at) / RFU TNFAIP8L3 (11732012_x_at) / Fold change /veh TNFAIP8L3 (11732012_x_at) / RFU MBOAT4 (11741988_at) / Fold change /veh MBOAT4 (11741988_at) / RFU 11764193_at / Fold change /veh 11764193_at / RFU TMEM53 (11763286_at) / Fold change /veh TMEM53 (11763286_at) / RFU MAGEB2 (11727129_at) / Fold change /veh MAGEB2 (11727129_at) / RFU TMEM200A (11744735_a_at) / Fold change /veh TMEM200A (11744735_a_at) / RFU CCDC152 (11751479_a_at) / Fold change /veh CCDC152 (11751479_a_at) / RFU FAM211A (11726209_a_at) / Fold change /veh FAM211A (11726209_a_at) / RFU RGS16 (11746705_a_at) / Fold change /veh RGS16 (11746705_a_at) / RFU VCAN (11755009_s_at) / Fold change /veh VCAN (11755009_s_at) / RFU RHOB (11743442_s_at) / Fold change /veh RHOB (11743442_s_at) / RFU RGS16 (11720943_a_at) / Fold change /veh RGS16 (11720943_a_at) / RFU RGS16 (11720944_at) / Fold change /veh RGS16 (11720944_at) / RFU, VPS4B / Fold change vs veh, VPS4B / RFU, CREB1 / Fold change vs veh, CREB1 / RFU, DNAJC13 / Fold change vs veh, DNAJC13 / RFU, GNAQ / Fold change vs veh, GNAQ / RFU, CDK5R1 / Fold change vs veh, CDK5R1 / RFU, ZRANB3 / Fold change vs veh, ZRANB3 / RFU, CUL4A / Fold change vs veh, CUL4A / RFU, CCNY / Fold change vs veh, CCNY / RFU, UFL1 / Fold change vs veh, UFL1 / RFU, COG3 / Fold change vs veh, COG3 / RFU, DIAPH2 / Fold change vs veh, DIAPH2 / RFU, SKA2 / Fold change vs veh, SKA2 / RFU, AFF3 / Fold change vs veh, AFF3 / RFU, LMF1 / Fold change vs veh, LMF1 / RFU, IPO11 / Fold change vs veh, IPO11 / RFU, DFFB / Fold change vs veh, DFFB / RFU, FOXP1 / Fold change vs veh, FOXP1 / RFU, CARD8 / Fold change vs veh, CARD8 / RFU, STRN3 / Fold change vs veh, STRN3 / RFU, ADK / Fold change vs veh, ADK / RFU, RASSF2 / Fold change vs veh, RASSF2 / RFU, WIPF1 / Fold change vs veh, WIPF1 / RFU, LARP1B / Fold change vs veh, LARP1B / RFU, RASA1 / Fold change vs veh, RASA1 / RFU, RB1 / Fold change vs veh, RB1 / RFU, PPFIA1 / Fold change vs veh, PPFIA1 / RFU, MAT2A / Fold change vs veh, MAT2A / RFU, CCT5 / Fold change vs veh, CCT5 / RFU, WDR92 / Fold change vs veh, WDR92 / RFU, CUX1 / Fold change vs veh, CUX1 / RFU, TTC7A / Fold change vs veh, TTC7A / RFU, TMEM135 / Fold change vs veh, TMEM135 / RFU, DEPTOR / Fold change vs veh, DEPTOR / RFU, CPM / Fold change vs veh, CPM / RFU, DNAJB6 / Fold change vs veh, DNAJB6 / RFU, CACNA2D3 / Fold change vs veh, CACNA2D3 / RFU, DTX4 / Fold change vs veh, DTX4 / RFU, TFCP2 / Fold change vs veh, TFCP2 / RFU, GMCL1 /// GMCL1P1 / Fold change vs veh, GMCL1 /// GMCL1P1 / RFU, AEBP2 / Fold change vs veh, AEBP2 / RFU, SNHG1 /// SNORD22 /// SNORD25 /// SNORD26 /// SNORD27 /// SNORD28 /// SNORD29 /// SNORD31 / Fold change vs veh, SNHG1 /// SNORD22 /// SNORD25 /// SNORD26 /// SNORD27 /// SNORD28 /// SNORD29 /// SNORD31 / Fold change (Aza/veh), C12orf56 (ProbeSet 11735607_a_at) / Fold change (ACY-1035/veh), C12orf56 (ProbeSet 11735607_a_at) / Fold change (Aza/veh), FGFR1OP (ProbeSet 11751329_s_at) / Fold change (ACY-1035/veh), FGFR1OP (ProbeSet 11751329_s_at) / Fold change (Aza/veh), VPS36 (ProbeSet 11739960_a_at) / Fold change (ACY-1035/veh), VPS36 (ProbeSet 11739960_a_at) / RFU SYPL1 (11715823_x_at) / Fold change /veh SYPL1 (11715823_x_at) / RFU IGFBP7 (11715501_s_at) / Fold change /veh IGFBP7 (11715501_s_at) / RFU REEP3 (11722064_at) / Fold change /veh REEP3 (11722064_at) / RFU IGLL1 (11728026_x_at) / Fold change /veh IGLL1 (11728026_x_at): dose or concentration left out as unconfirmed", "settings": "ProbeSet 11764057_s_at; LIST B", "data": [{"molecule": "Nc1ncn([C@@H]2O[C@H](CO)[C@@H](O)[C@H]2O)c(=O)n1", "note": "[azacitidine]", "values": [{"measurement": "RFU, C1orf63", "value": 124.54, "unit": "RFU"}]}]}
